Test results from patent US10351525B2, “Beta lactamase inhibitors” (Oxford University Innovation Limited, priority 2014, dated 2019).

What was measured:
Type in all cases: biochemical
VIM-1 = target: T1, VIM-1 (Pseudomonas aeruginosa, UniProt A0A0F7KYQ8); assay: MBL screening assay (IC50), VIM-1
T1 construct: made in house; host or cells: Escherichia coli
Protocol: Recombinant forms of NDM-1, NDM-1 M67C, VIM-1, VIM-2, SPM-1, IMP-1 and BcII MBLs were produced in Escherichia coli as described in J. Med. Chem. 56, 6945-6953 (2013) and Makena et al Chem MechCHem 8, 1923-9 (2013). Purified VIM-2 protein was dialysed into fresh crystallization buffer (50 mM HEPES pH 7.5, 150 mM NaCl and […], concentrated to 7.5 mg/mL and used for crystallographic analyses.
Kinetic and inhibition analyses and UV-VIS studies^16 against bacterial MBLs were performed as described by Van Berkel et al in J. Med. Chem. 56, 6945-6953 (2013) and Makena et al Chem MechCHem 8, 1923-9 (2013).
The experiments were performed by using a NovaStar microplate reader (using path length correction) and were performed at r.t. (24-25° C.). All enzymes and substrates were dissolved in the assay buffer: 50 mM HEPES-NaOH buffer (pH 7.2) supplemented with 1 μg/mL BSA (to minimize the denaturation of the enzyme), 1 μM ZnSO4 and 0.01% Triton 100. Screening was carried out against a panel of MBLs including NDM-1, VIM-1, VIM-2, SPM-1 (Sao Paulo MBL-1) and IMP-1 and the non-clinically relevant model MBL Bacillus cereus (BcII).
The kinetic values determined were the means from at least three independent measurements. […] The IC50 values were determined from the plot of activity (steady state rate) versus inhibitor concentration using the same software. […]

PBP5 (dacA) from E. coli = PBP5 (dacA) from E. coli (Escherichia coli, UniProt P0AEB2); assay: Inhibition studies for penicillin binding proteins, PBP5; conditions: for remaining activity at 100 µM: read-out: RA (residual activity); for Inhibition verdict: key: N.I.—not inhibited
Protocol: (§1) To investigate the selectivity of ML302/ML302F for bacterial MBLs, activity was tested against TEM-1 (a Class A SBL), PBP-5 (penicillin-binding protein 5 or dacA) and PBP-6 (penicillin-binding protein 6, or dacC) from E. coli, hHAT (human histone acetyltransferase) and hHDAC (human histone deacetylase). TEM-1, PBP-5 and -6 and hHAT are known to be inhibited by rhodanines. Selectively against hACE-2 (Angiotensin converting enzyme 2) and hHAGH (Hydroxyacylglutathione hydrolase, human Glyoxylase II) was also tested.
(§2) The inhibition analyses were performed using the method previously described for PBP-3 (van Berkel, S. S. et al. Binding of (5 S)-penicilloic acid to penicillin binding protein 3.ACS Chem. Biol. 8, 2112-2116 (2013)). In brief: ML302 and ML302F were initially screened at a single concentration (100 μM) in duplicate. Inhibition of the PBP acylation rate by the chromogenic β-lactam Nitrocefin was determined by pre-incubation of the appropriate amount of enzyme (dacA 2 μM and dacC 6.8 μM, respectively) and inhibitor in the assay buffer (50 mM HEPES-NaOH buffer (pH 7.2) supplemented with 200 mM NaCl and 0.01% Triton 100) for 10 min. at r.t. prior to the initiation of the assay by the addition of nitrocefin (100 μM final concentration). The hydrolysis of Nitrocefin was monitored by following the variation in absorbance at 492 nm using 96 well flat bottom plates (UV-STAR Microplate (655801) or Greiner Bio-One). The experiments were performed using a PHERAstar FS—BMG Labtech microplate reader (using path length correction) at r.t. (24-25° C.). All enzymes and inhibitors were prepared in the assay buffer.

PBP6 (dacC) from E. coli = PBP6 (dacC) from E. coli (Escherichia coli, UniProt P08506); assay: Inhibition studies for penicillin binding proteins, PBP6; conditions: for Inhibition verdict: 100 μM; for remaining activity at 100 µM: read-out: RA (residual activity); for Inhibition verdict: key: N.I.—not inhibited
Protocol: as §1, §2

hACE-2 = target: T2, hACE-2 (Homo sapiens, UniProt Q9BYF1); assay: hACE 2 assay; conditions: for remaining activity at 100 µM: read-out: RA (residual activity); for Inhibition verdict: key: N.I.—not inhibited
T2 construct: purchased R&D Systems 933-ZN
Protocol: as §1
The inhibition analyses for human histone acetyltransferases (HAT), HDAC hHDAC (human histone deacetylase), hACE-2 (Angiotensin converting enzyme 2) and hHAGH (Hydroxyacylglutathione hydrolase, human Glyoxylase II) were performed using the commercially available HAT Assay Kit (Active Motif, catalogue No. 56100 (2009)), hHDAC (Active Motif, catalogue No. 56200 (2013)), hACE-2 (ACE-2 (R&D Systems) and hHAGH ((R&D Systems).
hACE 2 Assay (R&D systems):
• Assay Buffer: 75 mM Tris, 1 M NaCl, pH 7.5 • Recombinant Human ACE-2 (rhACE-2) (Catalog #933-ZN) • Substrate: MCA-Tyr-Val-Ala-Asp-Ala-Pro-Lys(DNP)-OH (Catalog # ES007), 10 mM stock in DMSO • F16 Black Maxisorp Plate (Nunc, Catalog #475515) • Fluorescent Plate Reader (Model: SpectraMax Gemini EM by Molecular Devices) or equivalent Assay: 1. Dilute rhACE-2 to 0.2 ng/μL in Assay Buffer. 2. Dilute Substrate to 40 μM in Assay Buffer. 3. Load in a black well plate 50 μL of […], and start the reaction by adding 50 μL of 40 μM Substrate. As a control load […] Substrate with 50 μL of Assay Buffer. 4. Read at excitation and emission wavelengths of 320 nm and 405 nm (top read), respectively in kinetic mode for 5 minutes. 5.

Sequence of PBP6 (dacC) from E. coli (P08506 28-400): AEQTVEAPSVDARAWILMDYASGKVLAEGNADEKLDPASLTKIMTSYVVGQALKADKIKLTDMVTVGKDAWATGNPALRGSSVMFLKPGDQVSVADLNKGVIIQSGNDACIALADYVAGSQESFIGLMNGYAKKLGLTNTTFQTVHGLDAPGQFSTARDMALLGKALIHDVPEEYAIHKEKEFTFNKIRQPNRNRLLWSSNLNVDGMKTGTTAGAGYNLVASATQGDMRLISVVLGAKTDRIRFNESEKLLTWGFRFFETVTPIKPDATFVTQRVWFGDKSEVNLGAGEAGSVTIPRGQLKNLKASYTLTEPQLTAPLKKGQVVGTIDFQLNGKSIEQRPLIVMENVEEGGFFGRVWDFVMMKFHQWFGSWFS
T2 sequence (Q9BYF1 18-740 limits assumed): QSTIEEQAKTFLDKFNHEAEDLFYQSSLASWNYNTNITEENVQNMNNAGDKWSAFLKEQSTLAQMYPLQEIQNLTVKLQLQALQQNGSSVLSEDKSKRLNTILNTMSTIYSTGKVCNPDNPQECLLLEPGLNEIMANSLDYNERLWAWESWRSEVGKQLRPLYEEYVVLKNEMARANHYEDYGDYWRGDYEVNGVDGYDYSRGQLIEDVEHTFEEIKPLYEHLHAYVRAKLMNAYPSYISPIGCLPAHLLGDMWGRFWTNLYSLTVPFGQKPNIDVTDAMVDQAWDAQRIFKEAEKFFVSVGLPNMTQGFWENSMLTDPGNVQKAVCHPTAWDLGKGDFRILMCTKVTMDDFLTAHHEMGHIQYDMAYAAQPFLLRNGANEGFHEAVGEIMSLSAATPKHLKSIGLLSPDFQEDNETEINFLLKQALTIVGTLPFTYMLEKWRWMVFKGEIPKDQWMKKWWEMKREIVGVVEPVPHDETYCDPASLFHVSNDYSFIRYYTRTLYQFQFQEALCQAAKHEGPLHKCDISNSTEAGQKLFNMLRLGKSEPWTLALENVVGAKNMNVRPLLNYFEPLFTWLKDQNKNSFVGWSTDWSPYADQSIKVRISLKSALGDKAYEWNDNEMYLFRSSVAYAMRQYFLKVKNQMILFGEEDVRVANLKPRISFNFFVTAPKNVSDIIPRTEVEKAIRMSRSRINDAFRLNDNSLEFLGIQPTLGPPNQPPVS
Sequence of PBP5 (dacA) from E. coli (P0AEB2 30-403): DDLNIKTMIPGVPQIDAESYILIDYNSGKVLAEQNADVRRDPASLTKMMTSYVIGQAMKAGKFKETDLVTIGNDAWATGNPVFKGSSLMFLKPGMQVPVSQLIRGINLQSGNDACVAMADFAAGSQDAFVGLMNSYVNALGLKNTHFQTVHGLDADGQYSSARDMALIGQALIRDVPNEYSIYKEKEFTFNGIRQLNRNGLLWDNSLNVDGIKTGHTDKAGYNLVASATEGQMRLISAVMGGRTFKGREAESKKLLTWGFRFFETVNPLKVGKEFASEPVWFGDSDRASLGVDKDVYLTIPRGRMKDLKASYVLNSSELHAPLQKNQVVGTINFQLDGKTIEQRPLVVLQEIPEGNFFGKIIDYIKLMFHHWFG

| Compound | IC50 (VIM-1) [nM] | remaining activity at 100 µM (PBP5 (dacA) from E. coli) [%] | Inhibition verdict (PBP6 (dacC) from E. coli) | remaining activity at 100 µM (PBP6 (dacC) from E. coli) [%] | RA (residual activity) (hACE-2; 100 μM) | remaining activity at 100 µM (hACE-2; 100 μM) [%] | Inhibition verdict (PBP5 (dacA) from E. coli; 100 μM) | Inhibition verdict (hACE-2) |
| --- | --- | --- | --- | --- | --- | --- | --- | --- |
| CN1CCN(NC(=O)CN2C(=O)C(=Cc3c(Cl)ccc(Cl)c3Cl)SC2=S)CC1 (mixture of isomers) [ML302, N-(4-Methylpiperazin-1-yl)-2-(4-oxo-2-thioxo-5-(2,3,6-trichlorobenzylidene)thiazolidin-3-yl)acetamide] | 660 ± 250 | 105 ± 5.7 | N.I. | 97.7 ± 3.8 | 73 ± 9 ^ % | ~75 |  |  |
| O=C(O)C(S)=Cc1c(Cl)ccc(Cl)c1Cl (racemic) [ML302F, 2-Mercapto-3-(2,3,6-trichlorophenyl)acrylic acid] | 440 ± 190 | 99.2 ± 6.4 | N.I. | 114 |  | 99 ± 4 | N.I. | N.I. |
